Values of other authors as cited in patent US20130184316A1, “METHODS FOR DIAGNOSING AND TREATING CONCUSSIVE DISORDERS” (priority 2010, published 2013).

Assays:
[1] = tested on: patients with idiopathic cerebellar ataxia; conditions: literature (Sprenger et al.); cited from earlier work
[2] = tested on: patients with type-2 episodic ataxia (EA2); conditions: literature reports; cited from earlier work

SMILES	Gravity-dependent symptoms associated with ataxic episodes [1]	Symptoms of EA2 (including downbeat nystagmus) [2]
Nc1ccncc1N [3,4-DAP, 3,4-diamino pyridine]	effective in ameliorating some gravity-dependent symptoms	
CC(=O)Nc1nnc(S(N)(=O)=O)s1 [acetazolamide]		attenuated
